Assay results as given in patent US20260250318A1, “COMPOSITIONS AND METHODS FOR CROSSING THE BLOOD BRAIN BARRIER” (VOYAGER THERAPEUTICS, INC., priority 2022, published 2026).

Tests used:
Conditions in all cases: synthetic library passage 3, intravenous, relative to wild-type AAV9
[1] = tested on: brain, spinal cord, and DRG of the NHPs; assay: NGS fold enrichment of synthetic library (passage 3) in NHPs, first cross-species screen; type: in vivo, cynomolgus macaques (Macaca fascicularis)
Summary of the method: (§1)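 Synthetic capsid library (passage 3) was given intravenously […] to NHPs aged 2-4 years and to BALB/c and C57Bl/6 mice (n=3 each, 6-8 weeks). After about 28 days in vivo, tissue RNA was RT-PCR amplified and NGS-sequenced; values are fold enrichment per variant relative to wild-type AAV9.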

brain [2] = assay: NGS fold enrichment of synthetic library (passage 3) in BALB/c mice, first cross-species screen; type: in vivo
Summary of the method: as §1

brain [3] = assay: NGS fold enrichment of synthetic library (passage 3) in C57Bl/6 mice, first cross-species screen; type: in vivo
Summary of the method: as §1

[4] = RNA from spinal cord of NHPs, NGS
[5] = RNA from brain of BALB/c mice, NGS
[6] = RNA from brain of C57Bl/6 mice, NGS

| Sequence | Fold enrichment over AAV9 in the brain of NHPs ([1]; RNA NGS, brain of NHPs) [fold] | Fold enrichment over AAV9 in the spinal cord of NHPs ([1]; RNA NGS, spinal cord of NHPs) [fold] | Fold enrichment over AAV9 in the brain of Mice (BALB/c) (brain [2]; RNA NGS, brain of BALB/c mice) [fold] | Fold enrichment over AAV9 in the brain of Mice (C57Bl/6) (brain [3]; RNA NGS, brain of C57Bl/6 mice) [fold] | Fold enrichment over AAV9 in the brain of NHPs ([1]; RNA from brain of NHPs, NGS) [fold] | Fold enrichment over AAV9 in the spinal cord of NHPs [1, 4] [fold] | Fold enrichment over AAV9 in the brain of Mice (BALB/c) (brain [2]; [5]) [fold] | Fold enrichment over AAV9 in the brain of Mice (C57Bl/6) (brain [3]; [6]) [fold] |
| --- | --- | --- | --- | --- | --- | --- | --- | --- |
| GSGAITHMPQNQQT | 1.695 | 1.681 | 0.411 | 0.647 | – | – | – | – |
| GSGAMPSHGQNQQT | 1.915 | 0.000 | 0.912 | 1.142 | – | – | – | – |
| GSGASESHRQNQQT | – | – | – | – | 1.350 | 0.850 | 0.313 | 0.325 |
| GSGASRMSIQNQQT | 1.045 | 0.111 | 0.417 | 0.801 | – | – | – | – |
| GSGAVHLTAQNQQT | – | – | – | – | 1.306 | 1.668 | 0.466 | 0.541 |
| GSGDDSRVGQNQQT | – | – | – | – | 1.172 | 0.191 | 0.156 | 0.466 |
| GSGDLRISPQNQQT | 2.012 | 16.207 | 0.237 | 0.620 | – | – | – | – |
| GSGDLVVSTQNQQT | 3.874 | 1.177 | 0.273 | 0.411 | – | – | – | – |
| GSGDRYQTLQNQQT | 1.897 | 1.075 | 0.318 | 0.645 | – | – | – | – |
| GSGDSITGKQNQQT | 2.112 | 1.295 | 0.306 | 0.793 | – | – | – | – |
| GSGDTLHMLQNQQT | 3.317 | 1.174 | 0.482 | 0.393 | – | – | – | – |
| GSGEAARYEQNQQT | 1.020 | 0.000 | 0.125 | 0.107 | – | – | – | – |
| GSGEKVHSGQNQQT | – | – | – | – | 1.289 | 0.062 | 0.671 | 0.862 |
| GSGERLHLTQNQQT | 1.885 | 1.456 | 0.245 | 0.387 | – | – | – | – |
| GSGERSISVQNQQT | – | – | – | – | 1.264 | 1.619 | 0.173 | 0.598 |
| GSGEYSRSGQNQQT | 2.145 | 0.745 | 0.205 | 0.617 | – | – | – | – |
| GSGFGPQTGQNQQT | 2.964 | 2.861 | 0.849 | 1.280 | – | – | – | – |
| GSGFHTDSRQNQQT | 1.748 | 4.384 | 0.575 | 7.344 | – | – | – | – |
| GSGFLSDTRQNQQT | 1.566 | 45.953 | 0.575 | 0.473 | – | – | – | – |
| GSGFNQRSEQNQQT | 2.121 | 4.491 | 0.758 | 1.770 | – | – | – | – |

| Sequence | Fold enrichment over AAV9 in the brain of NHPs ([1]; RNA NGS, brain of NHPs) [fold] | Fold enrichment over AAV9 in the spinal cord of NHPs ([1]; RNA NGS, spinal cord of NHPs) [fold] | Fold enrichment over AAV9 in the brain of Mice (BALB/c) (brain [2]; RNA NGS, brain of BALB/c mice) [fold] | Fold enrichment over AAV9 in the brain of Mice (C57Bl/6) (brain [3]; RNA NGS, brain of C57Bl/6 mice) [fold] | Fold enrichment over AAV9 in the brain of NHPs ([1]; RNA from brain of NHPs, NGS) [fold] | Fold enrichment over AAV9 in the spinal cord of NHPs [1, 4] [fold] | Fold enrichment over AAV9 in the brain of Mice (BALB/c) (brain [2]; [5]) [fold] | Fold enrichment over AAV9 in the brain of Mice (C57Bl/6) (brain [3]; [6]) [fold] |
| --- | --- | --- | --- | --- | --- | --- | --- | --- |
| GSGFPKSTEQNQQT | – | – | – | – | 1.376 | 2.058 | 0.194 | 0.610 |
| GSGFSHSMGKNQQT | – | – | – | – | 1.188 | 9.809 | 0.611 | 1.381 |
| GSGGGLQHNQNQQT | – | – | – | – | 1.163 | 4.098 | 0.778 | 1.137 |
| GSGGLDTRGQNQQT | 2.139 | 6.216 | 0.197 | 0.236 | – | – | – | – |
| GSGGTSVHQQNQQT | 1.629 | 0.000 | 0.195 | 0.585 | – | – | – | – |
| GSGGVTYQSQNQQT | 1.673 | 7.283 | 0.181 | 0.649 | – | – | – | – |
| GSGHAAISQQNQQT | 1.742 | 2.373 | 0.520 | 1.211 | – | – | – | – |
| GSGHAKAVGQNQQT | 1.081 | 4.357 | 0.824 | 0.703 | – | – | – | – |
| GSGHGQVLSQNQQT | 2.213 | 12.133 | 0.661 | 1.880 | – | – | – | – |
| GSGHIYVGIQNQQT | 2.178 | 6.428 | 0.337 | 0.989 | – | – | – | – |
| GSGHLFQSGQNQQT | 1.057 | 0.615 | 0.386 | 0.751 | – | – | – | – |
| GSGHLPQSAQNQQT | 2.803 | 7.828 | 0.496 | 0.826 | – | – | – | – |
| GSGHMSDLRQNQQT | 1.073 | 4.291 | 0.328 | 0.555 | – | – | – | – |
| GSGHMTYREKNQQT | 2.633 | 5.267 | 0.540 | 1.257 | – | – | – | – |
| GSGHNQQVRTAPNT | 1.885 | 1.022 | 0.580 | 1.006 | – | – | – | – |
| GSGHPYKAAQNQQT | – | – | – | – | 1.246 | 0.000 | 0.507 | 0.872 |
| GSGHSIRTDQNQQT | 3.074 | 15.600 | 0.148 | 0.229 | – | – | – | – |
| GSGHSPLPQQNQQT | 1.562 | 0.556 | 0.247 | 0.387 | – | – | – | – |
| GSGHSSHSVQNQQT | 3.339 | 3.318 | 0.424 | 0.942 | – | – | – | – |
| GSGHSVSGPQNQQT | 1.993 | 6.259 | 0.619 | 1.370 | – | – | – | – |
